# Test results as given in the supplement of paper PMC4862054.
# “And” between values parts separate entries of the source, which are not always exact repeats. Equal entries are not always repeated.
# What was measured:
# Conditions in all cases: incubation time: 72 h
# CAL-85-1 [1] = test: normalised viability (% of control), CellTiter-Blue; higher = more viable cells (about 100 = DMSO control)
# Procedure: (§1)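 DSRT, CellTiter-Blue viability, 72 h incubation. Signal is normalised to DMSO and benzethonium chloride controls. Value is the normalised response at dose 9.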
# DU-4475 [2] = test: as above
# Procedure: as §1
# HDQ-P1 [3] = test: as above
# Procedure: as §1
# CAL-51 [4] = test: as above
# Procedure: as §1
# CAL-148 [5] = test: as above
# Procedure: as §1
# MDA-MB-453 [6] = test: as above
# Procedure: as §1
# CAL-85-1 [7] = test: as above; remark: listed apart in the source
# Procedure: (§2)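 DSRT, CellTiter-Blue viability, 72 h incubation. Signal is normalised to DMSO and benzethonium chloride controls. Value is the normalised response at dose 6.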
# DU-4475 [8] = test: as above; remark: listed apart in the source
# Procedure: as §2
# HDQ-P1 [9] = test: as above; remark: listed apart in the source
# Procedure: as §2
# CAL-51 [10] = test: as above; remark: listed apart in the source
# Procedure: as §2
# CAL-148 [11] = test: as above; remark: listed apart in the source
# Procedure: as §2
# MDA-MB-453 [12] = test: as above; remark: listed apart in the source
# Procedure: as §2
# HCC1937 [13] = test: normalised viability (% of control), CellTiter-Blue; higher = more viable cells (100 = DMSO, 0 = benzethonium chloride kill control)
# Procedure: (§3)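 DSRT, CellTiter-Blue viability, 72 h incubation. Signal is normalised to DMSO and benzethonium chloride controls. Value is the normalised response at dose 1.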
# BT-549 [14] = test: as above
# Procedure: as §3
# CAL-85-1 [15] = test: as above
# Procedure: as §3
# MDA-MB-436 [16] = test: as above
# Procedure: as §3
# CAL-120 [17] = test: as above
# Procedure: as §3
# MDA-MB-231 [18] = test: as above
# Procedure: as §3
# DU-4475 [19] = test: as above
# Procedure: as §3
# HCC1143 [20] = test: as above
# Procedure: as §3
# MDA-MB-468 [21] = test: as above
# Procedure: as §3
# HDQ-P1 [22] = test: as above
# Procedure: as §3
# CAL-51 [23] = test: as above
# Procedure: as §3
# HCC1599 [24] = test: as above
# Procedure: as §3
# CAL-148 [25] = test: as above
# Procedure: as §3
# MDA-MB-453 [26] = test: as above
# Procedure: as §3
# Hs578T [27] = test: as above
# Procedure: as §3
# MFM-223 [28] = test: as above
# Procedure: as §3
# SK-BR-3 [29] = test: as above
# Procedure: as §3
# HCC1937 [30] = test: normalised response (% of control), CellTiter-Glo; higher = more viable cells (100 = DMSO, 0 = benzethonium chloride kill control)
# How it was run: (§4)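 Every value is a normalised signal taken at one concentration of a dilution series. Compound was placed in 384-well plates at 5 concentrations in 10-fold steps over a compound-specific 10,000-fold range, and 20 µl of breast cancer cell suspension was seeded onto it. After 72 h, CellTox Green fluorescence (485/520 nm) was measured first and CellTiter-Glo luminescence second, following 10 min at room temperature. Each plate was scaled to 0.1 % DMSO (100) and a positive kill control (0).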
# BT-549 [31] = test: as above
# How it was run: as §4
# CAL-85-1 [32] = test: as above
# How it was run: as §4
# MDA-MB-436 [33] = test: as above
# How it was run: as §4
# CAL-120 [34] = test: as above
# How it was run: as §4
# MDA-MB-231 [35] = test: as above
# How it was run: as §4
# DU-4475 [36] = test: as above
# How it was run: as §4
# MCF-10A = test: as above
# How it was run: as §4
# HCC1143 [37] = test: as above
# How it was run: as §4
# MDA-MB-468 [38] = test: as above
# How it was run: as §4
# BT-474 = test: as above
# How it was run: as §4
# HDQ-P1 [39] = test: as above
# How it was run: as §4
# CAL-51 [40] = test: as above
# How it was run: as §4
# HCC1599 [41] = test: as above
# How it was run: as §4
# CAL-148 [42] = test: as above
# How it was run: as §4
# MDA-MB-453 [43] = test: as above
# How it was run: as §4
# Hs578T [44] = test: as above
# How it was run: as §4
# MFM-223 [45] = test: as above
# How it was run: as §4
# SK-BR-3 [46] = test: as above
# How it was run: as §4
# CAL-85-1 [47] = test: normalised viability (% of control), CellTiter-Blue; higher = more viable cells (about 100 = DMSO control); remark: listed apart in the source
# Procedure: (§5)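 DSRT, CellTiter-Blue viability, 72 h incubation. Signal is normalised to DMSO and benzethonium chloride controls. Value is the normalised response at dose 8.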
# HDQ-P1 [48] = test: as above; remark: listed apart in the source
# Procedure: as §5
# CAL-51 [49] = test: as above; remark: listed apart in the source
# Procedure: as §5
# CAL-148 [50] = test: as above; remark: listed apart in the source
# Procedure: as §5
# MDA-MB-453 [51] = test: as above; remark: listed apart in the source
# Procedure: as §5
smiles,measurement,setting,value
CC[C@H](CO)Nc1nc(NCc2ccccc2)c2ncn(C(C)C)c2n1 [Roscovitine] (10000 nM),normalised viability,CAL-85-1 [1],61.9%
same,normalised viability,DU-4475 [2],96.6%
same,normalised viability,HDQ-P1 [3],75.6%
same,normalised viability,CAL-51 [4],85%
same,normalised viability,CAL-148 [5],80.8%
same,normalised viability,MDA-MB-453 [6],63.4%
CO[C@@]12[C@H](COC(N)=O)C3=C(C(=O)C(C)=C(N)C3=O)N1C[C@@H]1N[C@@H]12 [Mitomycin C] (300 nM),normalised viability,CAL-85-1 [7],98.7%
same,normalised viability,DU-4475 [8],86%
same,normalised viability,HDQ-P1 [9],83.7%
same,normalised viability,CAL-51 [10],102%
same,normalised viability,CAL-148 [11],105%
same,normalised viability,MDA-MB-453 [12],110%
COc1c2occc2cc2ccc(=O)oc12 [Methoxsalen] (300 nM),normalised viability,CAL-85-1 [7],107%
same,normalised viability,DU-4475 [8],111%
same,normalised viability,HDQ-P1 [9],88.7%
same,normalised viability,CAL-51 [10],104%
same,normalised viability,CAL-148 [11],114%
same,normalised viability,MDA-MB-453 [12],99.9%
C=CCN(/C=C1/C(=O)O[C@H](COC)[C@@]2(C)C1=C(O)C(=O)C1=C2[C@H](OC(C)=O)C[C@]2(C)C(=O)CC[C@@H]12)CC=C [PX-866] (10000 nM),normalised viability,CAL-85-1 [1],88.9%
same,normalised viability,DU-4475 [2],88%
same,normalised viability,HDQ-P1 [3],53.2%
same,normalised viability,CAL-51 [4],97.8%
same,normalised viability,CAL-148 [5],112%
same,normalised viability,MDA-MB-453 [6],70.2%
C/C(=C\c1csc(C)n1)[C@@H]1C[C@@H]2O[C@]2(C)CCC[C@H](C)[C@H](O)[C@@H](C)C(=O)C(C)(C)[C@@H](O)CC(=O)N1 [Ixabepilone] (30 nM),normalised viability,CAL-85-1 [7],85%
same,normalised viability,DU-4475 [8],88.9%
same,normalised viability,HDQ-P1 [9],71.6%
same,normalised viability,CAL-51 [10],103%
same,normalised viability,CAL-148 [11],99.2%
same,normalised viability,MDA-MB-453 [12],102%
Nc1ccn([C@@H]2O[C@H](CO)[C@@H](O)C2(F)F)c(=O)n1 [Gemcitabine] (30 nM),normalised viability,CAL-85-1 [7],58.7%
same,normalised viability,DU-4475 [8],72.8%
same,normalised viability,HDQ-P1 [9],74%
same,normalised viability,CAL-51 [10],42.9%
same,normalised viability,CAL-148 [11],42.1%
same,normalised viability,MDA-MB-453 [12],60.2%
CC(C)(C)NC(=O)[C@H]1CC[C@H]2[C@@H]3CC[C@H]4NC(=O)C=C[C@]4(C)[C@H]3CC[C@]12C [Finasteride] (300 nM),normalised viability,CAL-85-1 [7],97.8%
same,normalised viability,DU-4475 [8],96.4%
same,normalised viability,HDQ-P1 [9],109%
same,normalised viability,CAL-51 [10],105%
same,normalised viability,CAL-148 [11],106%
same,normalised viability,MDA-MB-453 [12],112%
CC[C@H](CO)Nc1nc(NCc2ccccc2)c2ncn(C(C)C)c2n1 [Roscovitine] (300 nM),normalised viability,CAL-85-1 [7],93.7%
same,normalised viability,DU-4475 [8],97.5%
same,normalised viability,HDQ-P1 [9],59.7%
same,normalised viability,CAL-51 [10],104%
same,normalised viability,CAL-148 [11],88.6%
same,normalised viability,MDA-MB-453 [12],86.9%
CCNC(=O)c1noc(-c2cc(C(C)C)c(O)cc2O)c1-c1ccc(CN2CCOCC2)cc1 [NVP-AUY922] (30 nM),normalised viability,CAL-85-1 [7],30.5%
same,normalised viability,DU-4475 [8],0.85%
same,normalised viability,HDQ-P1 [9],18%
same,normalised viability,CAL-51 [10],29.4%
same,normalised viability,CAL-148 [11],16%
same,normalised viability,MDA-MB-453 [12],9.09%
CN(Cc1cnc2nc(N)nc(N)c2n1)c1ccc(C(=O)N[C@@H](CCC(=O)O)C(=O)O)cc1 [Methotrexate] (10000 nM),normalised viability,CAL-85-1 [1],65.3%
same,normalised viability,DU-4475 [2],102%
same,normalised viability,HDQ-P1 [3],99.7%
same,normalised viability,CAL-51 [4],39.2%
same,normalised viability,CAL-148 [5],69.1%
same,normalised viability,MDA-MB-453 [6],90%
CCN(CC)CCCC(C)Nc1ccnc2cc(Cl)ccc12 (stereo not drawn) [Chloroquine] (990 nM),normalised viability,CAL-85-1 [1],91.3%
same,normalised viability,DU-4475 [2],115%
same,normalised viability,HDQ-P1 [3],126%
same,normalised viability,CAL-51 [4],89.5%
same,normalised viability,CAL-148 [5],84.8%
same,normalised viability,MDA-MB-453 [6],98.4%
COc1c2occc2cc2ccc(=O)oc12 [Methoxsalen] (10000 nM),normalised viability,CAL-85-1 [1],61%
same,normalised viability,DU-4475 [2],71.6%
same,normalised viability,HDQ-P1 [3],128%
same,normalised viability,CAL-51 [4],49.2%
same,normalised viability,CAL-148 [5],53.6%
same,normalised viability,MDA-MB-453 [6],28.5%
O=C(CCCCCCC(=O)Nc1ccccc1)NO [Vorinostat] (1 nM),normalised viability,HCC1937 [13],102% and 89.7%
same,normalised viability,BT-549 [14],94.4% and 117%
same,normalised viability,CAL-85-1 [15],91.5% and 104%
same,normalised viability,MDA-MB-436 [16],101% and 100%
same,normalised viability,CAL-120 [17],83.4% and 95.8%
same,normalised viability,MDA-MB-231 [18],89.6% and 94.1%
same,normalised viability,DU-4475 [19],100% and 106%
same,normalised viability,HCC1143 [20],94.7% and 100%
same,normalised viability,MDA-MB-468 [21],109%
same,normalised viability,HDQ-P1 [22],84.8% and 99.5%
same,normalised viability,CAL-51 [23],103% and 96%
same,normalised viability,HCC1599 [24],97.8% and 94.4%
same,normalised viability,CAL-148 [25],89.8% and 101%
same,normalised viability,MDA-MB-453 [26],106%
same,normalised viability,Hs578T [27],108% and 97.3%
same,normalised viability,MFM-223 [28],90% and 100%
same,normalised viability,SK-BR-3 [29],89.7% and 91.5%
same,normalised response,HCC1937 [30],99%
same,normalised response,BT-549 [31],108%
same,normalised response,CAL-85-1 [32],104%
same,normalised response,MDA-MB-436 [33],98.3%
same,normalised response,CAL-120 [34],95.9%
same,normalised response,MDA-MB-231 [35],94.8%
same,normalised response,DU-4475 [36],98.4%
same,normalised response,MCF-10A,92.1%
same,normalised response,HCC1143 [37],91.1%
same,normalised response,MDA-MB-468 [38],96%
same,normalised response,BT-474,93.1%
same,normalised response,HDQ-P1 [39],104%
same,normalised response,CAL-51 [40],80.8%
same,normalised response,HCC1599 [41],94.1%
same,normalised response,CAL-148 [42],102%
same,normalised response,MDA-MB-453 [43],97.9%
same,normalised response,Hs578T [44],97.5%
same,normalised response,MFM-223 [45],102%
same,normalised response,SK-BR-3 [46],88%
O=C(CCCCCCC(=O)Nc1ccccc1)NO [Vorinostat] (3000 nM),normalised viability,CAL-85-1 [47],59.5% and 66.1%
same,normalised viability,HDQ-P1 [48],68.1% and 62.5%
same,normalised viability,CAL-51 [49],101% and 94.8%
same,normalised viability,CAL-148 [50],49.7% and 59.7%
same,normalised viability,MDA-MB-453 [51],12.2% and 9.84%
